Here are results for two molecules from US6191290A, “Taxane derivatives for targeted therapy of cancer” (UAB Research Foundation, priority 2000, dated 2001).

The nature of series [1]: Solubility in aqueous and organic solvents. Type of series: physicochemical. To be noted: unconjugated peptide. From the text: Prior to the biological evaluation of this compound, two key issues needed to be addressed: The overall water solubility and the cell surface receptor binding ability of the conjugate.
The subject of series [2] is G18 human astrocytoma cells. The settings on record: cited from earlier work.
For series [3] the following is noted: clinical trials; cited from earlier work.
The next series deals with NCI-H1299 cells. As to the kind of experiment: Cytotoxicity assay at day 4 against NCI-H1299 cells, conjugate versus underivatized paclitaxel. The method, then: To evaluate the cytotoxic effects of the paclitaxel conjugate, experiments were designed to compare these effects with the underivatized, unconjugated paclitaxel.
To evaluate the cytotoxic activity of the conjugate relative to the intact, underivatized paclitaxel on the NCI-H1299 cells, 25 nM and 50 nM samples of paclitaxel and 10 nM and 30 nM solutions of the conjugate were incubated with the cells and the survival was assessed on day 4.

Series [4] concerns Burkitts lymphoma xenografts. To be noted: nude mice bearing Burkitts lymphoma xenografts; cited from earlier work.
Where [5] appears, read: Homo sapiens, NCI-H1299, 96 h, read-out: cytotoxicity (cell destruction).
Where [6] appears, read: Homo sapiens, NCI-H1299, 96 h, read-out: growth inhibition / cell destruction.

Structures are written as SMILES.

With `CC(C)C[C@H](NC(=O)[C@H](Cc1cnc[nH]1)NC(=O)CNC(=O)[C@@H](NC(=O)[C@H](C)NC(=O)[C@H](Cc1c[nH]c2ccccc12)NC(=O)[C@@H](N)CCC(N)=O)C(C)C)C(N)=O` [BBN[7-13]], the “solubility” value in series [1] is “soluble only in DMF and alcohols”.

In the case of `CC(=O)O[C@H]1C(=O)[C@@]2(C)[C@H]([C@H](OC(=O)c3ccccc3)[C@]3(O)C[C@H](OC(=O)[C@H](O)[C@@H](NC(=O)c4ccccc4)c4ccccc4)C(C)=C1C3(C)C)[C@]1(OC(C)=O)CO[C@@H]1C[C@@H]2O` [paclitaxel], the “radiosensitizing effect” value in series [2] is given as “radiosensitizing effect”. Further, the “reported side effects” value in series [3] is “neutropenia, mucositis, cardiac and neurological toxicities in addition to hypersensitivity”. Further, in the series with NCI-H1299 cells (setting [5]), the cytotoxicity at 0.01 µM is 0% and the cytotoxicity at 0.025 µM turned out to be 20%. In the series on NCI-H1299 cells (setting [6]), the inhibition at 0.025 µM came out at 23% and the inhibition at 0.05 µM was 51%. The “cytotoxicity (cell destruction)” value with NCI-H1299 cells (human, nci-h1299 cells, 96 h, 0.01 µM) was found to be 0%. Besides, the “radiosensitizing effect” value in series [4] was “radiosensitizing effect”.
